Measurements published in patent EP0554004A2, “Cephem compounds and antibacterial agents” (KATAYAMA SEIYAKUSYO CO. Ltd., priority 1992, dated 1993).
Like-named read-outs stand apart in the source and are kept apart here.

What was measured:
[1] = test system: clinically isolated MRSA; assay: Antibacterial potency against clinically isolated MRSA (Test Example 4); type: cell-based, methicillin-resistant Staphylococcus aureus; conditions: Staphylococcus aureus
Experimental: 52 strains of clinically isolated MRSA were used, and MIC was determined for each of the strains according to the standard method of the Japan Chemotherapical Society as in Test Example 1. The minimum growth inhibitory concentration which inhibited growth of 50% of the strains tested was expressed as MIC50 (µg/ml), and the minimum growth inhibitory concentration which inhibited growth of 90% of the strains was expressed as MIC90 (µg/ml).
MIC 50 and MIC 90 were determined for each of the 52 strains of clinically isolated MRSA according to the same method as used in Test Example 2.
VCM (vancomycin) was used as control agent.

[2] = test system: E. coli NIHJ JC-2; assay: MIC against standard strains (Test Example 3); type: cell-based; conditions: Escherichia coli, NIHJJC2
Experimental: (§1) By using each test strain cultured overnight at 37°C in a Muller-Hinton broth, there was prepared a bacterial solution with a bacterial cell population of 1 x 10^6 CFU/mi of the same bouillon. The bacterial solution was inoculated into the Muller-Hinton agar media each containing respectively one test agent and, after overnight incubation at 37°C, the minimum concentration that inhibited growth of the bacteria was determined and shown as MIC also in Table 1.
(§2) The minimum growth inhibitory concentration was determined for each of the 21 standard strains shown in Table 3, according to the same method as used in Test Example 1.
(§3) In the test, FMOX (flomoxef), CTM (cefotiam) and CEZ (cefazolin) were used as control agents.

[3] = test system: A. faecalis ATCC3750; assay: MIC against standard strains (Test Example 3); type: cell-based; conditions: Alcaligenes faecalis
Experimental: as §1, §2, §3

[4] = test system: K. pneumoniae IFO3317; assay: MIC against standard strains (Test Example 3); type: cell-based; conditions: Klebsiella pneumoniae
Experimental: as §1, §2, §3

[5] = test system: P. vulugaris OX-19; assay: MIC against standard strains (Test Example 3); type: cell-based
Experimental: as §1, §2, §3

[6] = test system: P. aeruginosa NCTC10490; assay: MIC against standard strains (Test Example 3); type: cell-based; conditions: Pseudomonas aeruginosa
Experimental: as §1, §2, §3

[7] = test system: S. aureus 167; assay: MIC against standard strains (Test Example 3); type: cell-based; conditions: Staphylococcus aureus
Experimental: as §1, §2, §3

[8] = test system: E. cloacae ATCC13407; assay: MIC against standard strains (Test Example 3); type: cell-based; conditions: Enterobacter cloacae
Experimental: as §1, §2, §3

[9] = test system: A. calcoaceticos T59; assay: MIC against standard strains (Test Example 3); type: cell-based
Experimental: as §1, §2, §3

[10] = test system: B. subtilis ATCC6633; assay: MIC against standard strains (Test Example 3); type: cell-based; conditions: Bacillus subtilis
Experimental: as §1, §2, §3

[11] = test system: C. freundii ATCC8090; assay: MIC against standard strains (Test Example 3); type: cell-based; conditions: Citrobacter freundii
Experimental: as §1, §2, §3

[12] = test system: M. luteus ATCC 9341; assay: MIC against standard strains (Test Example 3); type: cell-based; conditions: Micrococcus luteus, ATCC9341
Experimental: as §1, §2, §3

[13] = test system: S. aureus Smith; assay: MIC against standard strains (Test Example 3); type: cell-based; conditions: Staphylococcus aureus
Experimental: as §1, §2, §3

[14] = test system: E. coli CSH2 (RK1); assay: MIC against standard strains (Test Example 3); type: cell-based; conditions: Escherichia coli
Experimental: as §1, §2, §3

[15] = test system: E. coli CSH2 (RE45); assay: MIC against standard strains (Test Example 3); type: cell-based; conditions: Escherichia coli
Experimental: as §1, §2, §3

[16] = test system: M. Morganii IFO3848; assay: MIC against standard strains (Test Example 3); type: cell-based; conditions: Morganella morganii
Experimental: as §1, §2, §3

[17] = test system: K. pneumoniae No. 42; assay: MIC against standard strains (Test Example 3); type: cell-based; conditions: Klebsiella pneumoniae
Experimental: as §1, §2, §3

[18] = test system: P. mirabilis IFO3849; assay: MIC against standard strains (Test Example 3); type: cell-based; conditions: Proteus mirabilis
Experimental: as §1, §2, §3

[19] = test system: S. marcescens IAM1184; assay: MIC against standard strains (Test Example 3); type: cell-based; conditions: Serratia marcescens
Experimental: as §1, §2, §3

[20] = test system: S. aureus 195; assay: MIC against standard strains (Test Example 3); type: cell-based; conditions: Staphylococcus aureus
Experimental: as §1, §2, §3

[21] = test system: S. aureus 209p JC-1; assay: MIC against standard strains (Test Example 3); type: cell-based; conditions: Staphylococcus aureus
Experimental: as §1, §2, §3

[22] = test system: S. epidemidis IAM1296; assay: MIC against standard strains (Test Example 3); type: cell-based
Experimental: as §1, §2, §3

[23] = 52 strains of clinically isolated MRSA, concentration inhibiting growth of 50% of the strains (Test Example 4), read-out: MIC50
[24] = 52 strains of clinically isolated MRSA, concentration inhibiting growth of 90% of the strains (Test Example 4), read-out: MIC90
[25] = E. coli NIHJ JC-2 (Test Example 3), read-out: MIC
[26] = A. faecalis ATCC3750 (Test Example 3), read-out: MIC
[27] = K. pneumoniae IFO3317 (Test Example 3), read-out: MIC
[28] = P. vulugaris OX-19 (Test Example 3), read-out: MIC
[29] = P. aeruginosa NCTC10490 (Test Example 3), read-out: MIC
[30] = S. aureus 167 (MRSA) (Test Example 3), read-out: MIC
[31] = E. cloacae ATCC13407 (Test Example 3), read-out: MIC
[32] = A. calcoaceticos T59 (Test Example 3), read-out: MIC
[33] = B. subtilis ATCC6633 (Test Example 3), read-out: MIC
[34] = C. freundii ATCC8090 (Test Example 3), read-out: MIC
[35] = M. luteus ATCC 9341 (Test Example 3), read-out: MIC
[36] = S. aureus Smith (Test Example 3), read-out: MIC
[37] = M. Morganii IFO3848 (Test Example 3), read-out: MIC
[38] = K. pneumoniae No. 42 (Test Example 3), read-out: MIC
[39] = P. mirabilis IFO3849 (Test Example 3), read-out: MIC
[40] = S. marcescens IAM1184 (Test Example 3), read-out: MIC
[41] = S. aureus 195 (MRSA) (Test Example 3), read-out: MIC
[42] = S. aureus 209p JC-1 (Test Example 3), read-out: MIC
[43] = S. epidemidis IAM1296 (Test Example 3), read-out: MIC

Compound: CNc1nc(-c2ccc[n+](CC3=C(C(=O)[O-])N4C(=O)[C@@H](NC(=O)/C(=N\O)c5csc(N)n5)[C@H]4SC3)c2)cs1 [Compound (10), 7β-[2-(2-aminothiazol-4-yl)-2-syn-hydroxyiminoacetamido)-3-[[3-(2-methylaminothiazol-4-yl)-1-pyridinio]methyl]-3-cephem-4-carboxylic acid chloride]
- MIC50 [1, 23]: 4.04 µg/mL
- MIC90 [1, 24]: 8.37 µg/mL
- MIC [2, 25]: 1.56 µg/mL
- MIC [3, 26]: 6.25 µg/mL
- MIC [4, 27]: 0.39 µg/mL
- MIC [5, 28]: 0.39 µg/mL
- MIC [6, 29]: 25 µg/mL
- MIC [7, 30]: 12.5 µg/mL
- MIC [8, 31]: 12.5 µg/mL
- MIC [9, 32]: 50 µg/mL
- MIC [10, 33]: 0.39 µg/mL
- MIC [11, 34]: 1.56 µg/mL
- MIC [12, 35]: 0.1 µg/mL
- MIC [13, 36]: 0.78 µg/mL
- MIC [14]: 3.13 µg/mL
- MIC [15]: 1.56 µg/mL
- MIC [16, 37]: 0.2 µg/mL
- MIC [17, 38]: 6.25 µg/mL
- MIC [18, 39]: 3.13 µg/mL
- MIC [19, 40]: 3.13 µg/mL
- MIC [20, 41]: 3.13 µg/mL
- MIC [21, 42]: 0.39 µg/mL
- MIC [22, 43]: 0.2 µg/mL

Compound: NC(=O)Cc1ccc[n+](CC2=C(C(=O)[O-])N3C(=O)[C@@H](NC(=O)/C(=N\O)c4csc(N)n4)[C@H]3SC2)c1 [Compound (7), 7β-[2-(2-aminothiazol-4-yl)-2-syn-hydroxyiminoacetamido]-3-[(3-carbamoylmethyl-1-pyridinio)methyl]-3-cephem-4-carboxylic acid chloride]
- MIC50 [1, 23]: 2.04 µg/mL
- MIC90 [1, 24]: 5.44 µg/mL
- MIC [2, 25]: 0.2 µg/mL
- MIC [3, 26]: 1.56 µg/mL
- MIC [4, 27]: 0.2 µg/mL
- MIC [5, 28]: 0.39 µg/mL
- MIC [6, 29]: 1.56 µg/mL
- MIC [7, 30]: 12.5 µg/mL
- MIC [8, 31]: 0.39 µg/mL
- MIC [9, 32]: 3.13 µg/mL
- MIC [10, 33]: 0.39 µg/mL
- MIC [11, 34]: 0.2 µg/mL
- MIC [12, 35]: 0.1 µg/mL
- MIC [13, 36]: 0.39 µg/mL
- MIC [14]: 0.78 µg/mL
- MIC [15]: 0.2 µg/mL
- MIC [16, 37]: 0.1 µg/mL
- MIC [17, 38]: 0.39 µg/mL
- MIC [18, 39]: 0.2 µg/mL
- MIC [19, 40]: 0.2 µg/mL
- MIC [20, 41]: 3.13 µg/mL
- MIC [21, 42]: 0.2 µg/mL
- MIC [22, 43]: 0.1 µg/mL

Compound: NC(=O)Oc1ccc[n+](CC2=C(C(=O)[O-])N3C(=O)[C@@H](NC(=O)/C(=N\O)c4csc(N)n4)[C@H]3SC2)c1 [Compound (8), 7β-[2-(2-aminothiazol-4-yl)-2-syn-hydroxyiminoacetamido]-3-[(3-carbamoyloxy-1-pyridinio)methyl]-3-cephem-4-carboxylic acid chloride]
- MIC50 ([1]; MRSA): 8.34 µg/mL
- MIC90 ([1]; MRSA): 37.9 µg/mL
- MIC [2]: 0.1 µg/mL
- MIC ([3]; ATCC3750): 0.78 µg/mL
- MIC ([4]; IFO3317): 0.1 µg/mL
- MIC [5]: 0.2 µg/mL
- MIC ([6]; NCTC10490): 100 µg/mL
- MIC ([7]; MRSA): 50 µg/mL
- MIC ([8]; ATCC13407): 1.56 µg/mL
- MIC [9]: 25 µg/mL
- MIC ([10]; ATCC6633): 0.39 µg/mL
- MIC ([11]; ATCC8090): 0.39 µg/mL
- MIC [12]: 0.1 µg/mL
- MIC [13]: 1.56 µg/mL
- MIC [14]: 0.39 µg/mL
- MIC [15]: 0.2 µg/mL
- MIC ([16]; IFO3848): 0.05 µg/mL
- MIC ([17]; NO.42): 0.39 µg/mL
- MIC ([18]; IFO3849): 0.1 µg/mL
- MIC ([19]; IAM1184): 0.39 µg/mL
- MIC ([20]; MRSA): 25 µg/mL
- MIC ([21]; 209P): 0.78 µg/mL
- MIC [22]: 0.39 µg/mL
